The target in experiment [1] is T1, recombinant human FLAP protein (Homo sapiens, UniProt P20292).
T1 construct: made in house; host or cells: Sf9 insect cells (100,000 x g membrane fraction)
T1 sequence (P20292 1-161): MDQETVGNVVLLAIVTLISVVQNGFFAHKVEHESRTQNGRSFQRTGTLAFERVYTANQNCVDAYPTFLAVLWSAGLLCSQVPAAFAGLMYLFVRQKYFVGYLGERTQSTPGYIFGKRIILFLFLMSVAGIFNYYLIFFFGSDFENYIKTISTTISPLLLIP
Kind of experiment: FLAP binding assay (Scintillation Proximity Assay, displacement of [125I]L-691,831). Conditions: recombinant human FLAP membranes, [125I]L-691,831 probe; read-out: FLAP SPA IC50. Put shortly:
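WGA scintillation proximity beads were stirred 1 h with 5 μg of FLAP-containing membrane protein. The membranes came from baculovirus Sf9 cells, Dounce-lysed and spun to a 100,000×g pellet in buffer at pH 7.5.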

Experiment [2] concerns synthesis of LTB4 in human whole blood. The experiment is described as follows: human whole blood LTB4 production inhibition assay. It is filed as cell-based. The conditions noted are these: Homo sapiens, heparinized human whole blood, calcimycin 20 μM; read-out: hWB LTB4 IC50. Put shortly: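 Heparinized human whole blood was preincubated with compound for 15 min at 37° C, then stimulated with calcimycin (20 μM final, in PBS pH 7.4) for a further 30 min at 37° C. Plasma LTB4 was quantified by antibody-based homogeneous time-resolved fluorescence.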

Turning to `Nc1ncc(-c2ccc(C3(c4noc(-c5ccc(C(=O)N6CCC(O)C6)nc5)n4)CCC3)cc2)cn1` (stereo not drawn) [Example 60, [5-(3-{1-[4-(2-Amino-pyrimidin-5-yl)-phenyl]-cyclobutyl]-1,2,4-oxadiazol-5-yl)-pyridin-2-yl]-(3-hydroxy-pyrrolidin-1-yl)-methanone], the IC50 (usually the point on the concentration scale where inhibition reaches its midpoint) in experiment [1] is 4.7 nM; in experiment [2], 150 nM.
`CN(CCO)c1cnc(-c2nc(C3(c4ccc(-c5cnc(N)nc5)cc4)CCC3)no2)cn1` [Example 61, 2-{[5-(3-{1-[4-(2-amino-pyrimidin-5-yl)-phenyl]-cyclobutyl}-1,2,4-oxadiazol-5-yl)-pyrazin-2-yl]-methyl-amino}-ethanol]: the half-maximal inhibitory concentration (IC50) in experiment [1] turned out to be 1.5 nM; in experiment [2] it was 53 nM.
With `COCCNc1cnc(-c2nc(C3(c4ccc(-c5cnc(N)nc5)cc4)CCC3)no2)cn1` [Example 62, 5-[4-(1-{5-[5-(2-Methoxy-ethylamino)-pyrazin-2-yl]-1,2,4-oxadiazol-3-yl}-cyclobutyl)-phenyl]-pyrimidin-2-ylamine], the values for the IC50 in experiment [1] and in experiment [2] were 1.3 nM and 13 nM, respectively.
`CCNc1cnc(-c2nc(C3(c4ccc(-c5cnc(N)nc5)cc4)CCC3)no2)cn1` [Example 63, 5-(4-{1-[5-(5-Ethylamino-pyrazin-2-yl)-1,2,4-oxadiazol-3-yl]-cyclobutyl}-phenyl)-pyrimidin-2-ylamine]: the concentration for half-maximal inhibition (IC50) in experiment [1] was 1 nM; in experiment [2], 25 nM.
For `Nc1ncc(-c2ccc(C3(c4noc(-c5ccc(C(=O)N6CC(O)C6)nc5)n4)CCC3)cc2)cn1` [Example 64, [5-(3-{1-[4-(2-Amino-pyrimidin-5-yl)-phenyl]-cyclobutyl}-1,2,4-oxadiazol-5-yl)-pyridin-2-yl]-(3-hydroxy-azetidin-1-yl)-methanone] the same measures were 7.7 nM and 310 nM.
The like results for `CCn1cccc(-c2nc(C3(c4ccc(-c5cnc(N)nc5)cc4)CCC3)no2)c1=O` [Example 65, 3-(3-{1-[4-(2-Amino-pyrimidin-5-yl)-phenyl]-cyclobutyl}-1,2,4-oxadiazol-5-yl)-1-ethyl-1H-pyridin-2-one] were, in that order, 5.9 nM and 97 nM.
Consider `COCCn1cccc(-c2nc(C3(c4ccc(-c5cnc(N)nc5)cc4)CCC3)no2)c1=O` [Example 66, 3-(3-{1-[4-(2-Amino-pyrimidin-5-yl)-phenyl]-cyclobutyl}-1,2,4-oxadiazol-5-yl)-1-(2-methoxy-ethyl)-1H-pyridin-2-one], for which the IC50 was found to be 8.4 nM in experiment [1] and 120 nM in experiment [2].
Turning to `Nc1ncc(-c2ccc(C3(c4noc(-c5cccn(CCO)c5=O)n4)CCC3)cc2)cn1` [Example 67, 3-(3-{1-[4-(2-Amino-pyrimidin-5-yl)-phenyl]-cyclobutyl}-1,2,4-oxadiazol-5-yl)-1-(2-hydroxy-ethyl)-1H-pyridin-2-one], the IC50 in experiment [1] was determined as 12 nM; in experiment [2], 290 nM.
As for `Nc1ncc(-c2ccc(C3(c4noc(-c5cnc(NCCO)cn5)n4)CCC3)cc2)cn1` [Example 68, 2-[5-(3-{1-[4-(2-Amino-pyrimidin-5-yl)-phenyl]-cyclobutyl}-1,2,4-oxadiazol-5-yl)-pyrazin-2-ylamino]-ethanol], the IC50 in experiment [1] stood at 1.1 nM; in experiment [2] it was 130 nM.
As to `Nc1ncc(-c2ccc(C3(c4noc(-c5ccc(C(=O)N6CCC6)nc5)n4)CCC3)cc2)cn1` [Example 70, [5-(3-{1-[4-(2-Amino-pyrimidin-5-yl)-phenyl]-cyclobutyl}-1,2,4-oxadiazol-5-yl)-pyridin-2-yl]-azetidin-1-yl-methanone], the IC50 in experiment [1] was found to be 3 nM; in experiment [2], 220 nM.
For the compound `Nc1ncc(-c2ccc(C3(c4noc(-c5cscn5)n4)CCC3)cc2)cn1` [Example 71], the IC50 was 2.4 nM in experiment [1] and 200 nM in experiment [2].
On to `Nc1ncc(-c2ccc(C3(c4noc(-c5cnn6cccnc56)n4)CCC3)cc2)cn1` [Example 72, 5-{4-[1-(5-Pyrazolo[1,5-a]pyrimidin-3-yl-1,2,4-oxadiazol-3-yl)-cyclobutyl]-phenyl}-pyrimidin-2-ylamine], for which the IC50 in experiment [1] came to 1.9 nM; in experiment [2], 18 nM.
For the compound `Nc1ncc(-c2ccc(C3(c4noc(-c5ccc6nccn6c5)n4)CCC3)cc2)cn1` [Example 73, 5-{4-[1-(5-Imidazo[1,2-a]pyridin-6-yl-1,2,4-oxadiazol-3-yl)-cyclobutyl]-phenyl}-pyrimidin-2-ylamine], the half-inhibitory concentration (IC50) worked out at 6.8 nM in experiment [1] and 450 nM in experiment [2].
Turning to `Nc1ncc(-c2ccc(C3(c4noc(NCCO)n4)CCC3)cc2)cn1` [Example 74, 2-(3-{1-[4-(2-amino-pyrimidin-5-yl)-phenyl]-cyclobutyl}-1,2,4-oxadiazol-5-ylamino)-ethanol], the half-inhibitory concentration (IC50) in experiment [1] was found to be 71 nM; in experiment [2] it was 520 nM.
In the case of `Nc1ncc(-c2ccc(C3(c4noc(-c5ccc(C(=O)N6CCC(F)(F)C6)nc5)n4)CCC3)cc2)cn1` [Example 75, [5-(3-{1-[4-(2-Amino-pyrimidin-5-yl)-phenyl]-cyclobutyl}-1,2,4-oxadiazol-5-yl)-pyridin-2-yl]-(3,3-difluoro-pyrrolidin-1-yl)-methanone], the 50% inhibitory concentration (IC50) was determined as 3.5 nM in experiment [1] and 190 nM in experiment [2].
`COCCNC(=O)c1ccc(-c2nc(C3(c4ccc(-c5cnc(N)nc5)cc4)CCC3)no2)cn1` [Example 76, 5-(3-{1-[4-(2-Amino-pyrimidin-5-yl)-phenyl]-cyclobutyl}-1,2,4-oxadiazol-5-yl)-pyridine-2-carboxylic acid (2-methoxy-ethyl)-amide]: the concentration for half-maximal inhibition (IC50) in experiment [1] came out at 3.9 nM; in experiment [2] it was 190 nM.
For the compound `Nc1ncc(-c2ccc(C3(c4noc(-c5ccc(C(=O)NCCO)nc5)n4)CCC3)cc2)cn1` [Example 77, 5-(3-{1-[4-(2-Amino-pyrimidin-5-yl)-phenyl]-cyclobutyl}-1,2,4-oxadiazol-5-yl)-pyridine-2-carboxylic acid (2-hydroxy-ethyl)-amide], the IC50 in experiment [1] amounted to 2.6 nM; in experiment [2] it was 160 nM.
Turning to `CN(CCO)C(=O)c1ccc(-c2nc(C3(c4ccc(-c5cnc(N)nc5)cc4)CCC3)no2)cn1` [Example 78, 5-(3-{1-[4-(2-Amino-pyrimidin-5-yl)-phenyl]-cyclobutyl}-1,2,4-oxadiazol-5-yl)-pyridine-2-carboxylic acid (2-hydroxy-ethyl)-methyl-amide], the IC50 in experiment [1] worked out at 8.8 nM; in experiment [2] it was 160 nM.
`Nc1ncc(-c2ccc(C3(c4noc(N5CCCCC5)n4)CCC3)cc2)cn1` [Example 80, 5-{4-[1-(5-Piperidin-1-yl-1,2,4-oxadiazol-3-yl)-cyclobutyl]-phenyl}-pyrimidin-2-ylamine]: the results for the IC50 in experiment [1] and in experiment [2] were 6.5 nM and 390 nM, respectively.
As for `CNC(=O)Cn1cc(-c2nc(C3(c4ccc(-c5cnc(N)nc5)cc4)CCC3)no2)cn1` [Example 81, 2-[4-(3-{1-[4-(2-Amino-pyrimidin-5-yl)-phenyl]-cyclobutyl}-1,2,4-oxadiazol-5-yl)-pyrazol-1-yl]-N-methyl-acetamide], the results for the IC50 in experiment [1] and in experiment [2] were 6.4 nM and 130 nM, respectively.
For the compound `CC(CO)n1cc(-c2nc(C3(c4ccc(-c5cnc(N)nc5)cc4)CCC3)no2)cn1` (stereo not drawn) [Example 82, 2-[4-(3-{1-[4-(2-Amino-pyrimidin-5-yl)-phenyl]-cyclobutyl}-1,2,4-oxadiazol-5-yl)-pyrazol-1-yl]-propan-1-ol], the half-maximal inhibitory concentration (IC50) was 3.1 nM in experiment [1] and 99 nM in experiment [2].
Turning to `CC(O)Cn1cc(-c2nc(C3(c4ccc(-c5cnc(N)nc5)cc4)CCC3)no2)cn1` (stereo not drawn) [Example 83, 1-[4-(3-{1-[4-(2-Amino-pyrimidin-5-yl)-phenyl]-cyclobutyl}-1,2,4-oxadiazol-5-yl)-pyrazol-1-yl]-propan-2-ol], the IC50 in experiment [1] is 4 nM; in experiment [2], 110 nM.
Turning to `CC(C)(CO)n1cc(-c2nc(C3(c4ccc(-c5cnc(N)nc5)cc4)CCC3)no2)cn1` [Example 84, 2-[4-(3-{1-[4-(2-Amino-pyrimidin-5-yl)-phenyl]-cyclobutyl}-1,2,4-oxadiazol-5-yl)-pyrazol-1-yl]-2-methyl-propan-1-ol], the results for the concentration for half-maximal inhibition (IC50) in experiment [1] and in experiment [2] were 4 nM and 160 nM, respectively.
Take `Nc1ncc(-c2ccc(C3(c4noc(-c5cnc(N6CCOCC6)cn5)n4)CCC3)cc2)cn1` [Example 85, 5-(4-{1-[5-(5-Morpholin-4-yl-pyrazin-2-yl)-1,2,4-oxadiazol-3-yl]-cyclobutyl}-phenyl)-pyrimidin-2-ylamine]: the values for the IC50 in experiment [1] and in experiment [2] were 1.3 nM and 71 nM, respectively.
In the case of `Nc1ncc(-c2ccc(C3(c4noc(-c5cnc(N6CC(O)C6)cn5)n4)CCC3)cc2)cn1` [Example 86, 1-[5-(3-{1-[4-(2-Amino-pyrimidin-5-yl)-phenyl]-cyclobutyl}-1,2,4-oxadiazol-5-yl)-pyrazin-2-yl]-azetidin-3-ol], the IC50 in experiment [1] stood at 1.2 nM; in experiment [2], 79 nM.
The like results for `CCn1cnc(-c2nc(C3(c4ccc(-c5cnc(N)nc5)cc4)CCC3)no2)c1` [Example 87, 5-(4-{1-[5-(1-Ethyl-1H-imidazol-4-yl)-1,2,4-oxadiazol-3-yl]-cyclobutyl}-phenyl)-pyrimidin-2-ylamine] were, in that order, 4.5 nM and 150 nM.
For `COCCn1cnc(-c2nc(C3(c4ccc(-c5cnc(N)nc5)cc4)CCC3)no2)c1` [Example 88, 5-[4-(1-{5-[1-(2-Methoxy-ethyl)-1H-imidazol-4-yl]-1,2,4-oxadiazol-3-yl}-cyclobutyl)-phenyl]-pyrimidin-2-ylamine] the same measures were 6.3 nM and 160 nM.

These data come from patent publication US8580829B2 (Boehringer Ingelheim International GmbH, priority 2010, dated 2013).
